Literature values as cited in patent US7910613B2, “2-acylaminothiazole derivatives” (H. Lundbeck A/S, priority 2004, dated 2011).
Where two headings read alike, the source gives them in different places.

What was measured:
mice [1] = conditions: for total immobility time: mouse tail suspension test
[2] = tested on: MPTP treated mice and 6-OHDA-lesioned rats
[3] = tested on: unilateral 6-OHDA (6-hydroxydopamine) lesioned mice and rats; conditions: elicited by a subtreshold dose of levodopa
mice [4] = conditions: mouse forced swimming test
[5] = mice previously screened for having high immobility time

In the case of `Nc1nc(NCCc2ccc(O)cc2)nc2nc(-c3ccco3)nn12` [ZM241385, 4-(2-[7-amino-2-(2-furyl)[1,2,4]triazolo[2,3-a][1,3,5]triazin-5-ylamino]-ethyl)phenol], the immobility (mice [1]; [5]) is listed as “reduce immobility”.

In the case of `CCn1c(=O)c2c(nc(/C=C/c3ccc(OC)c(OC)c3)n2C)n(CC)c1=O` [KW-6002, 8-[(1E)-2-(3,4-dimethoxyphenyl)ethenyl]-1,3-diethyl-3,7-dihydro-7-methyl-1H-purine-2,6-dione], the “functional loss of dopaminergic nerve terminals in the striatum” value [2] is given as “prevented functional loss of dopaminergic nerve terminals in the striatum”, the “gliosis normally induced around degenerating neurons” value [2] is given as “prevented gliosis” and the total immobility time (mice [1]) is given as “reduced the total immobility time”. For the same compound, the contralateral rotations [3] was “enhance contralateral rotations”, the “motor impairment induced by MPTP” value (non-human primates) was “significantly improves motor impairment” and the dyskinesias (non-human primates; MPTP) was “without causing dyskinesias”.

For `Nc1nc2c(cnn2CCc2ccccc2)c2nc(-c3ccco3)nn12` [SCH58261, 2-(2-furanyl)-7-(2-phenylethyl)-7H-pyrazolo[4,3-e][1,2,4]triazolo[1,5-c]pyrimidin-5-amine], the immobility (mice [1]; [5]) is listed as “reduce immobility”, the immobility (mice [1]; mice selectively bred for their helplessness) is listed as “reduced immobility” and the total immobility time (mice [1]) is listed as “reduced the total immobility time”. For the same compound, the contralateral rotations [3] was “enhance contralateral rotations”.

In the case of `Nc1nc(Cl)nc2c1ncn2[C@@H]1O[C@H](CO)[C@@H](O)[C@H]1O` [2-chloroadenosine], the immobility time (mice [4]) is listed as “increased immobility time”.

For `Nc1ncnc2c1ncn2[C@@H]1O[C@H](CO)[C@@H](O)[C@H]1O` [adenosine], the immobility time (mice [4]) is given as “increased immobility time”.
